The supplement of paper PMC10627819

Key:
S. aureus DSM 20231 [1] = experiment: fitness (endpoint OD595 vs no drug) (fraction); higher = more growth
Method in brief: (§1)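 Fitness compares growth at the stationary-phase transition with the robust mean of no-drug control wells, as a ratio of optical densities. The ratio is capped at 1. Wells of 384-well plates held 30 µl, or 55 µl for S. pneumoniae, inoculated at OD595 0.01. Readings at OD595 every 30 min for 14 h at 37 °C were corrected against the first reading.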

S. aureus Newman [2] = experiment: as above
Method in brief: as §1

S. pneumoniae D39V [3] = experiment: as above
Method in brief: as §1

B. subtilis 168 = experiment: Bliss interaction score (quartile over a dose matrix) (fitness difference); higher = more antagonism (negative = synergy)
Method in brief: (§2)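 Each OD595 reading at entry into stationary phase was scaled to the robust mean of the untreated wells on its plate, with a ceiling of 1. These ratios define fitness, and single-drug fitness was inferred from combinations. The Bliss score compares observed fitness with the product-based expectation and is reported as quartiles across all replicate types, technical, biological and donor/recipient.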

S. aureus DSM 20231 [4] = experiment: as above
Method in brief: as §2

S. aureus Newman [5] = experiment: as above
Method in brief: as §2

S. pneumoniae D39V [6] = experiment: as above
Method in brief: as §2
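Wherever Bliss interaction score (quartile over a dose matrix) is given: first quartile when negative (synergy) and third quartile when positive (antagonism).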
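Wherever fitness (endpoint OD595 vs no drug) is given: OD595 on entry to stationary phase over no-drug wells; at most 1.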

CC1(C)S[C@@H]2[C@H](NC(=O)[C@H](N)c3ccc(O)cc3)C(=O)N2[C@H]1C(=O)O [Amoxicillin] + C[n+]1ccc(-c2cc[n+](C)cc2)cc1 [Paraquat]
Details | fitness
S. aureus DSM 20231 [1], first compound 0.0625 µg/mL, partner 1.25 µg/mL | 0.512
S. aureus DSM 20231 [1], first compound 0.0625 µg/mL, partner 2.5 µg/mL | 0.517
S. aureus DSM 20231 [1], first compound 0.0625 µg/mL, partner 5 µg/mL | 0.488
S. aureus DSM 20231 [1], first compound 0.125 µg/mL, partner 1.25 µg/mL | 0.433
S. aureus DSM 20231 [1], first compound 0.125 µg/mL, partner 2.5 µg/mL | 0.498
S. aureus DSM 20231 [1], first compound 0.125 µg/mL, partner 5 µg/mL | 0.431
S. aureus DSM 20231 [1], first compound 0.25 µg/mL, partner 2.5 µg/mL | 0.0563
S. aureus DSM 20231 [1], first compound 0.25 µg/mL, partner 5 µg/mL | 0.0722
S. aureus Newman [2], first compound 0.0625 µg/mL, partner 1.25 µg/mL | 0.89
S. aureus Newman [2], first compound 0.0625 µg/mL, partner 2.5 µg/mL | 0.87
S. aureus Newman [2], first compound 0.0625 µg/mL, partner 5 µg/mL | 0.86
S. aureus Newman [2], first compound 0.125 µg/mL, partner 1.25 µg/mL | 0.861
S. aureus Newman [2], first compound 0.125 µg/mL, partner 2.5 µg/mL | 0.885
S. aureus Newman [2], first compound 0.125 µg/mL, partner 5 µg/mL | 0.838
S. aureus Newman [2], first compound 0.25 µg/mL, partner 5 µg/mL | 0.829
S. pneumoniae D39V [3], first compound 0.0008 µg/mL, partner 1.5 µg/mL | ≥ 1
S. pneumoniae D39V [3], first compound 0.0008 µg/mL, partner 3 µg/mL | 0.961
S. pneumoniae D39V [3], first compound 0.0008 µg/mL, partner 6 µg/mL | 0.921
S. pneumoniae D39V [3], first compound 0.0015 µg/mL, partner 1.5 µg/mL | 0.988
S. pneumoniae D39V [3], first compound 0.0015 µg/mL, partner 3 µg/mL | 0.939
S. pneumoniae D39V [3], first compound 0.0015 µg/mL, partner 6 µg/mL | 0.913
S. pneumoniae D39V [3], first compound 0.003 µg/mL, partner 1.5 µg/mL | 0.96
S. pneumoniae D39V [3], first compound 0.003 µg/mL, partner 3 µg/mL | 0.847
S. pneumoniae D39V [3], first compound 0.003 µg/mL, partner 6 µg/mL | 0.864

fitness, one replicate
Details | partner 1.25 µg/mL | partner 1.5 µg/mL | partner 2.5 µg/mL | partner 3 µg/mL | partner 5 µg/mL | partner 6 µg/mL
S. aureus DSM 20231 [1], first compound 0.5 µg/mL | 0.0127 | – | 0.0289 | – | 0.0485 | –
S. pneumoniae D39V [3], first compound 0.006 µg/mL | – | 0.542 | – | 0.561 | – | 0.422

Details | Bliss interaction score
B. subtilis 168 | -0.061
S. aureus DSM 20231 [4] | 0.0506
S. aureus Newman [5] | 0.0578
S. pneumoniae D39V [6] | -0.0705

CC1(C)S[C@@H]2[C@H](NC(=O)[C@H](N)c3ccc(O)cc3)C(=O)N2[C@H]1C(=O)O [Amoxicillin] + Cc1cc(NS(=O)(=O)c2ccc(N)cc2)no1 [Sulfamethoxazol]
fitness
Details | partner 1 µg/mL | partner 2 µg/mL | partner 4 µg/mL
S. aureus DSM 20231 [1], first compound 0.0625 µg/mL | 0.445 | 0.506 | 0.522
S. aureus DSM 20231 [1], first compound 0.125 µg/mL | 0.376 | – | –
S. aureus DSM 20231 [1], first compound 0.25 µg/mL | 0.0292 | 0.0368 | 0.035
S. aureus Newman [2], first compound 0.0625 µg/mL | 0.878 | 0.88 | 0.883
S. aureus Newman [2], first compound 0.125 µg/mL | 0.858 | 0.876 | 0.876
S. aureus Newman [2], first compound 0.25 µg/mL | 0.81 | 0.847 | 0.844
S. pneumoniae D39V [3], first compound 0.0008 µg/mL | 0.936 | 0.972 | 0.926
S. pneumoniae D39V [3], first compound 0.0015 µg/mL | 0.882 | 0.928 | 0.878
S. pneumoniae D39V [3], first compound 0.003 µg/mL | 0.87 | 0.883 | 0.875

fitness, one replicate
Details | partner 1 µg/mL | partner 2 µg/mL | partner 4 µg/mL | partner 8 µg/mL
S. aureus DSM 20231 [1], first compound 0.5 µg/mL | 0.015 | 0.0516 | 0.0038 | –
S. aureus Newman [2], first compound 0.125 µg/mL | – | – | – | 0.948
S. aureus Newman [2], first compound 0.25 µg/mL | – | – | – | 0.938
S. aureus Newman [2], first compound 0.5 µg/mL | – | 0.812 | 0.852 | 0.84
S. pneumoniae D39V [3], first compound 0.006 µg/mL | 0.368 | 0.423 | 0.388 | –

Details | Bliss interaction score
B. subtilis 168 | -0.0805
S. aureus DSM 20231 [4] | -0.0441
S. aureus Newman [5] | -0.0589
S. pneumoniae D39V [6] | -0.09
